Laboratory results published in patent US20120136046A1, “METHOD OF TREATING AGE RELATED DISORDERS” (Chronos Therapeutics Limited, priority 2009, published 2012).

Key:
[1] = tested on: MRC5 human fibroblast cell line; experiment: Cell division rate / replicative lifespan of MRC5 fibroblasts; format: cell-based
Experimental: The cell division rate was measured using the method of Fairweather, D. S., M. Fox, and G. P. Margison, (1987), Exp Cell Res, 168(1): p. 153-9. Briefly, the replicative lifespan of MRC5 cells are measured by growing them on the surface of dishes until the reach confluencey whereupon they are split at a 1:2 ratio (i.e. diluted 1 in 2). The number of times the culture is split is equal to that of the number of divisions the cells are able to undertake which is the cultures replicative lifespan. MRC5 cells are only able to divide a finite number of times, and as they reach the end of their life the time they take to undergo cell division increases. In this instance the rate of cell division is used as a measure of age.

C. elegans = C. elegans lifespan, percentage of living worms over time; format: in vivo; conditions: FIG. 5
Experimental: FK-506 was added to C. elegans during the timed egg laying stage and lifespan was measured as described in Sutphin, G. L., and Kaeberlein, M., (2009) J. Vis. Exp, 27. Briefly this method comprises synchronising a population of worms and measuring the percentage of living worms at a range of time points, scoring live worms by their ability to respond to physical stimulus.

S. cerevisiae = experiment: Chronological lifespan of yeast, outgrowth method (Bioscreen C); format: cell-based; conditions: FIG. 4
Experimental: Lifespan was measured using the outgrowth method described by Murakami, C. and Kaeberlein, M., (2009) J. Vis. Exp, 27. Briefly, chronological lifespan of yeast refers to the profile of viability of an ageing yeast culture over time. To measure this a yeast culture is grown in liquid media until the glucose carbon source is exhausted and the cells stop dividing. At this point the proportion of cells which are alive and able to divide is measured by observing the outgrowth characteristics of a fresh inoculate of the ageing culture using a Bioscreen™ C machine (Oy Growth Curves Ab Ltd, Finland). Viabilities at various time points are compared to determine the chronological lifespan of the culture.

SMILES: C=CC[C@@H]1/C=C(\C)C[C@H](C)C[C@H](OC)[C@H]2O[C@@](O)(C(=O)C(=O)N3CCCC[C@H]3C(=O)O[C@H](/C(C)=C/[C@@H]3CC[C@@H](O)[C@H](OC)C3)[C@H](C)[C@@H](O)CC1=O)[C@H](C)C[C@@H]2OC [FK-506, fujimycin]
- age dependent reduction in cell division rate ([1]; MRC5 cells, FIG. 6): appears to reverse age dependent reduction in cell division rate
- division time compared to a control having no FK-506 added ([1]; MRC5 cells, addition after 39 divisions): reduction of the division time
- toxicity to the cells ([1]; higher concentrations): becomes toxic to the cells
- lifespan of C. elegans (C. elegans; added during the timed egg laying stage): prolongs the lifespan of C. elegans in a dose dependent manner
- viability of the organisms (chronological lifespan) (C. elegans; addition of 4μ/ml): significant increase in the viability
- effect on the chronological lifespan of the cells compared to the control (S. cerevisiae; 0.1 ng/ml in the culture medium): no significant effect
- effect on the median lifespan of the yeast cells compared to the control (S. cerevisiae; 1 ng/ml or more in the culture medium): significant effect increasing the median lifespan
